Substitutions are numbered along the chain they refer to.

These results are taken from patent publication US20260098008A1, “COVALENT, CHEMOGENETIC ACTIVATORS FOR K2P POTASSIUM CHANNELS AND USES THEREOF” (THE REGENTS OF THE UNIVERSITY OF CALIFORNIA, priority 2022, published 2026).

In assay [1] the target is T1, A286F TREK-1^CG* (Mus musculus, UniProt P97438, A301F/S146C).
T1 construct: expressed in transfected cells; host or cells: Xenopus laevis oocytes injected with mRNA
T1 sequence (P97438 1-411 isoform P97438-2 S131C/A286F): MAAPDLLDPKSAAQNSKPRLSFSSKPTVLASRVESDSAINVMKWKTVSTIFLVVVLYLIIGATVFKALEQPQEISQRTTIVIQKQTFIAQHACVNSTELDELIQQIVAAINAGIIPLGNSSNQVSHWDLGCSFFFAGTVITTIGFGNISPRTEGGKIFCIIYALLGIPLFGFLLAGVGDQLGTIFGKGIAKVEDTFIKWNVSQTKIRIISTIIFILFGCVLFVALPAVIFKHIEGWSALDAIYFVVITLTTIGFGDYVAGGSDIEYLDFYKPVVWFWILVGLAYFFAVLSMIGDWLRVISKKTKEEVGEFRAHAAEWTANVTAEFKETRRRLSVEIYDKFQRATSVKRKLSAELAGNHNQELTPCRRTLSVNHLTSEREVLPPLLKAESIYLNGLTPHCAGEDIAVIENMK
Description: TEVC in Xenopus oocytes, attenuated channels. It counts as cell-based. Conditions: 20 μM; sequential addition of ML335, CAT335, BL-1249; 0 mV. The text has this: (§1) Mouse K2P2.1 (TREK-1) (Genbank accession number: NP_034737.2), mouse K2P10.1 (TREK-2) (NM_001316665.1), mouse K2P4.1 (TRAAK) (NM_008431.3), human K2P4.1 (TRAAK) (NM_033310.2) and mouse K2P18.1(TRESK) (NM_207261.3) were used for this study. Point mutations were introduced by site-directed mutagenesis using custom primers and confirmed by sequencing before use. For studies using Xenopus oocytes, K2P channels were subcloned into a previously reported pGEMHE/pMO vector (46). For expression in HEK293 cells, mouse K2P2.1 (TREK-1) and mutants were expressed from a previously described pIRES2-EGFP vector in HEK293 cells (46,47). K2P2.1 (TREK-1) tandems were constructed by connecting the open reading frames for the individual subunits with a linker encoding the […] (SEQ ID NO: 19) sequence. Tandems used for HEK293 cells included an N-terminal HA tag ([…] (SEQ ID NO: 20)) on the first subunit.
Xenopus laevis oocytes were harvested according to UCSF IACUC Protocol AN129690 and digested using collagenase (Worthington Biochemical Corporation, #LS004183, 0.8-1.0 mg/mL) in Ca^21-free ND96 (96 mM NaCl, 2 mM KCl, 3.8 mM MgCl2, 5 mM HEPES pH 7.4) immediately post-harvest, as previously reported (31,33). Oocytes were maintained at 18° C. in ND96 (96 mM NaCl, 2 mM KCl, 1.8 mM CaCl2, 2 mM MgCl2, 5 mM HEPES pH 7.4) supplemented with antibiotics (100 units mL^−1 penicillin, 100 μg mL^−1 streptomycin, 50 μg mL^−1 gentimycin) and used for experiments within one week of harvest.
Defolliculated stage V-VI oocytes were microinjected with 0.5-36 ng mRNA and currents were recorded within 16-48 h hours of injection.
For recordings, oocytes were impaled with borosilicate recording microelectrodes (0.4-2.0 MΩ resistance) backfilled with 3 M KCl and were subjected to constant perfusion of ND96 at a rate of 3 ml min^−1. Recording solutions containing K2P activators were prepared immediately prior to use from DMSO stocks (20-100 mM), with final DMSO concentrations of 0.1%. Currents were evoked from a −80 mV holding potential followed by a 300 ms ramp from −150 mV to +50 mV. Data were recorded using a GeneClamp 500B amplifier (MDS Analytical Technologies) controlled by pCLAMP8 software (Molecular Devices), and digitized at 1 kHz using Digidata 1332 Å digitizer (MDS Analytical Technologies). For each recording, control solution (ND96) was perfused over a single oocyte until current was stable before switching to solutions containing the test compounds at various concentrations. Representative traces and dose response plots were generated in GraphPad Prism 9.

For assay [2], the target named is T2, K2P2.1 (TREK-1) (Mus musculus, UniProt P97438).
T2 construct: expressed in transfected cells; host or cells: Xenopus laevis oocytes injected with mRNA (pGEMHE/pMO vector)
T2 sequence (P97438 1-411 isoform P97438-2): T1 sequence (P97438 1-411 isoform P97438-2 S131C/A286F) with C131S, F286A
Description: Whole-cell patch clamp in transfected HEK293 cells. The class given is cell-based. Conditions: 20 μM; for Fold-activation (I activator/I control): whole-cell currents.
Source text: as §1
50% confluent cells were co-transfected (in 35-mm diameter wells) with 10-100 ng of the K2P2.1 plasmid and 400 ng of an eGFP plasmid (for visualization) using LipofectAMINE 2000 (Invitrogen) for 24 h, after which the cells were either plated onto coverslips or the media exchanged with fresh media. Cells were plated onto Matrigel coated coverslips (BD Biosciences) 1-2 hours before experiments.
Whole-cell patch-clamp experiments with K2P2.1(TREK-1) and mutants were carried out 24-48 h after transfection. Acquisition and analysis for voltage-clamp experiments were performed using pCLAMP10 and an Axopatch 200B amplifier (Molecular Devices). Current-clamp experiments were acquired using an […] amplifier (Molecular Devices). Pipettes were pulled using a Flaming/Brown micropipette puller (P-97, Sutter Instruments) and flame-polished using a MF-830 microforge (Narishige). Electrode resistance after filling with pipette internal solution ranged from 2 to 5 MΩ. Currents were low-pass filtered at 2 kHz and sampled at 10 kHz. Pipette solution contained the following: 145 mM KCl, 3 mM MgCl2, 5 mM EGTA and 20 mM HEPES (pH 7.2 with KOH). Bath solution contained the following: 145 mM NaCl, 5 mM KCl, 1 mM CaCl2, 3 mM MgCl2 and 20 mM HEPES (pH 7.4 with NaOH). K2P2.1 currents were elicited by a 1 s ramp from −100 to +50 mV from a −80 mV holding potential. Current-clamp recordings were taken with no holding current (I=0). Only K2P2.1(TREK-1)^CG* whole-cell patches with basal currents between […] at 0 mV were used Criteria for A286F K2P2.1(TREK-1)^CG*. ML335 or CAT335 were applied at 20 μM in bath solution and were perfused at 3 ml min^−1 until potentiation stabilized (1-3 min). Data were analyzed using Clampfit 11 and GraphPad Prism 9.

With `c1ccc(-c2nn[nH]n2)c(Nc2cccc3c2CCCC3)c1` [BL-1249, reference compound], the “Fold-activation (I activator/I control)” value in assay [1] is 53+5 fold.
For `O=C(NCc1ccc(Cl)cc1Cl)c1ccc(N2C(=O)C=CC2=O)cc1` [CAT335], the “Fold-activation (I activator/I control)” value in assay [1] was determined as 21±3 fold. For the same compound, in assay [2], the “Reversibility of activation on washout” value is “fully reversible” and the “Fold-activation (I activator/I control)” value came to 1.9 ± 0.2 fold.
Turning to `CS(=O)(=O)Nc1ccc(C(=O)NCc2ccc(Cl)cc2Cl)cc1` [ML335, reference compound], in assay [2], the “Fold-activation (I activator/I control)” value was 6.2 ± 0.5 fold.
